Data taken from patent publication US20120115845A1, “THERAPEUTIC AGENTS” (priority 2007, published 2012).

Target: T1, human GHS receptor (Homo sapiens, UniProt Q92847)
Test: Ghrelin IP1 agonist assay (IP1 HTRF)
Format: cell-based
Design: expressed in transfected cells; host or cells: HEK293s
Details: 2 h; agonist effect as % maximal effect of GHRP-6 (5 μM); read-out: h IP1 ag %
Experimental: In HEK293s cells stably expressing human GHS receptor (In-house), agonist activity was assessed by measuring intracellular myo-Inositol 1 phosphate (IP1) using the IP1 HTRF assay kit (Cisbio International).
Cells were harvested using accutase (Sigma), spun down at 1000 rpm for 5 minutes and resuspended in stimulation buffer (as above) containing 0.02% fatty acid free BSA at a density of 1.43E6cells/ml.
Agonist effect of the compound was expressed as % maximal effect of GHRP-6 (5 μM: Bachem). Sigmoidal curves were fitted by Origin 7.5 Client and EC50 values determined.

T1 sequence (Q92847 whole entry): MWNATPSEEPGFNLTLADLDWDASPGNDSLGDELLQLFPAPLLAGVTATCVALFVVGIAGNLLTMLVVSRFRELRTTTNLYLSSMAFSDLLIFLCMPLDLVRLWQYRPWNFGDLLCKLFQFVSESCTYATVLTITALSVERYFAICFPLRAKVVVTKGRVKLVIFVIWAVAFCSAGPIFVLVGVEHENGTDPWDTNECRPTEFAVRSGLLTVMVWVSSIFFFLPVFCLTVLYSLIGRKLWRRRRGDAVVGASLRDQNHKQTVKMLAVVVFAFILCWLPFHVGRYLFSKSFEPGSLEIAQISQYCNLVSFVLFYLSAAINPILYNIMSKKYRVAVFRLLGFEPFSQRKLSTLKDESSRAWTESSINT

Emax [%]	SMILES
38.4	CS(=O)(=O)c1ccc2nc(NC(=O)NC(=O)c3c(F)cccc3F)sc2c1 [Example 112, 2,6-Difluoro-N-[(6-methylsulfonylbenzothiazol-2-yl)carbamoyl]benzamide]
29.5	NC(=O)COCCS(=O)(=O)c1ccc2nc(NC(=O)NC(=O)c3ccccc3Cl)sc2c1 [Example 120, N-[[6-[2-(Carbamoylmethoxy)ethylsulfonyl]benzothiazol-2-yl]carbamoyl]-2-chloro-benzamide]
31.8	CS(=O)(=O)c1ccc2nc(NC(=O)NC(=O)c3ccccc3-c3ccccc3F)sc2c1 [Example 125, 2-(2-Fluorophenyl)-N-[(6-methylsulfonylbenzothiazol-2-yl)carbamoyl]benzamide]
38.4	CS(=O)(=O)c1ccc2nc(NC(=O)NC(=O)c3ccccc3-c3ccc(F)cc3)sc2c1 [Example 126, 2-(4-Fluorophenyl)-N-[(6-methylsulfonylbenzothiazol-2-yl)carbamoyl]benzamide]

Same assay, conditions: HEK293s cells stably expressing human GHS receptor; 2 hours at 37° C.; read-out: h IP1 ag EC50

EC50 [µM]	SMILES
0.142	CS(=O)(=O)c1ccc2nc(NC(=O)NC(=O)c3c(F)cccc3F)sc2c1 [Example 112, 2,6-Difluoro-N-[(6-methylsulfonylbenzothiazol-2-yl)carbamoyl]benzamide]
0.211	NC(=O)COCCS(=O)(=O)c1ccc2nc(NC(=O)NC(=O)c3ccccc3Cl)sc2c1 [Example 120, N-[[6-[2-(Carbamoylmethoxy)ethylsulfonyl]benzothiazol-2-yl]carbamoyl]-2-chloro-benzamide]
0.252	CS(=O)(=O)c1ccc2nc(NC(=O)NC(=O)c3ccccc3-c3ccccc3F)sc2c1 [Example 125, 2-(2-Fluorophenyl)-N-[(6-methylsulfonylbenzothiazol-2-yl)carbamoyl]benzamide]
1.03	CS(=O)(=O)c1ccc2nc(NC(=O)NC(=O)c3ccccc3-c3ccc(F)cc3)sc2c1 [Example 126, 2-(4-Fluorophenyl)-N-[(6-methylsulfonylbenzothiazol-2-yl)carbamoyl]benzamide]

Same assay, conditions: agonist effect as % maximal effect of GHRP-6 (5 μM)

h IP1 ag % [%]	SMILES
18.23	CCS(=O)(=O)c1ccccc1C(=O)NC(=O)Nc1nc2ccc(S(C)(=O)=O)cc2s1 [Example 135, 2-Ethyl sulfonyl-N-[(6-methylsulfonylbenzothiazol-2-yl)carbamoyl]benzamide]

Target: T1, human GHS receptor
Test: h bind IC50 (binding assay, Table 1)
Details: not given

SMILES	IC50 in the binding assay
COc1cc(Cl)c(C(=O)NC(=O)Nc2nc3ccc(S(C)(=O)=O)cc3s2)cc1OC [2-chloro-4,5-dimethoxy-N-[(6-methylsulfonyl-1,3-benzothiazol-2-yl)carbamoyl]benzamide]	did not have IC50s in the range of about 0.001 μM to about 10 μM
CS(=O)(=O)c1ccc2nc(NC(=O)NC(=O)c3cc(F)ccc3Cl)sc2c1 [2-chloro-5-fluoro-N-[(6-methylsulfonylbenzothiazol-2-yl)carbamoyl]benzamide]	did not have IC50s in the range of about 0.001 μM to about 10 μM

Same assay, conditions: human receptor; Table 1

SMILES	IC50 [µM]
CN(C)CCS(=O)(=O)c1ccc2nc(NC(=O)NC(=O)c3ccccc3Cl)sc2c1 [Example 3, 2-Chloro-N-[[6-(2-dimethylaminoethylsulfonyl)benzothiazol-2-yl]carbamoyl]benzamide]	1.12
O=C(NC(=O)c1ccccc1Cl)Nc1nc2ccc(S(=O)(=O)CCN3CCC(O)C3)cc2s1 (stereo not drawn) [Example 5, 2-Chloro-N-[[6-[2-(3-hydroxypyrrolidin-1-yl)ethylsulfonyl]benzothiazol-2-yl]carbamoyl]benzamide]	0.403
O=C(NC(=O)c1ccccc1Cl)Nc1nc2ccc(S(=O)(=O)CCN3CCCC3)cc2s1 [Example 6, 2-Chloro-N-[[6-(2-pyrrolidin-1-ylethylsulfonyl)benzothiazol-2-yl]carbamoyl]benzamide]	0.0444
CCN(CC)CCS(=O)(=O)c1ccc2nc(NC(=O)NC(=O)c3ccccc3Cl)sc2c1 [Example 7, 2-Chloro-N-[[6-(2-diethylaminoethylsulfonyl)benzothiazol-2-yl]carbamoyl]benzamide]	0.67
COCCN(C)CCS(=O)(=O)c1ccc2nc(NC(=O)NC(=O)c3ccccc3Cl)sc2c1 [Example 9, 2-Chloro-N-[[6-[2-(2-methoxyethyl-methyl-amino)ethylsulfonyl]benzothiazol-2-yl]carbamoyl]benzamide]	0.247
CN(CCO)CCS(=O)(=O)c1ccc2nc(NC(=O)NC(=O)c3ccccc3Cl)sc2c1 [Example 11, 2-Chloro-N-[[6-[2-(2-hydroxyethyl-methyl-amino)ethylsulfonyl]benzothiazol-2-yl]carbamoyl]benzamide]	0.347
CCC(C)NCCS(=O)(=O)c1ccc2nc(NC(=O)NC(=O)c3ccccc3Cl)sc2c1 (stereo not drawn) [Example 12, N-[[6-[2-(Butan-2-ylamino)ethylsulfonyl]benzothiazol-2-yl]carbamoyl]-2-chloro-benzamide]	0.179
CCN(CCOC)CCS(=O)(=O)c1ccc2nc(NC(=O)NC(=O)c3ccccc3Cl)sc2c1 [Example 15, 2-Chloro-N-[[6-[2-(ethyl-(2-methoxyethyl)amino)ethylsulfonyl]benzothiazol-2-yl]carbamoyl]benzamide]	1.08
CC1CN(CCS(=O)(=O)c2ccc3nc(NC(=O)NC(=O)c4ccccc4Cl)sc3c2)CC(C)O1 (stereo not drawn) [Example 19, 2-Chloro-N-[[6-[2-(2,6-dimethylmorpholin-4-yl)ethylsulfonyl]benzothiazol-2-yl]carbamoyl]benzamide]	1.05
CC(NCCS(=O)(=O)c1ccc2nc(NC(=O)NC(=O)c3ccccc3Cl)sc2c1)c1ccccc1 (stereo not drawn) [Example 20, 2-Chloro-N-[[6-[2-(1-phenylethylamino)ethylsulfonyl]benzothiazol-2-yl]carbamoyl]benzamide]	0.184
O=C(NC(=O)c1ccccc1Cl)Nc1nc2ccc(S(=O)(=O)CCNCC3CCCO3)cc2s1 (stereo not drawn) [Example 22, 2-Chloro-N-[[6-[2-(oxolan-2-ylmethylamino)ethylsulfonyl]benzothiazol-2-yl]carbamoyl]benzamide]	0.184
CN1CCN(CCS(=O)(=O)c2ccc3nc(NC(=O)NC(=O)c4ccccc4Cl)sc3c2)CC1 [Example 23, 2-Chloro-N-[[6-[2-(4-methylpiperazin-1-yl)ethylsulfonyl]benzothiazol-2-yl]carbamoyl]benzamide]	0.0827
O=C(NC(=O)c1ccccc1Cl)Nc1nc2ccc(S(=O)(=O)CCNCCF)cc2s1 [Example 31, 2-Chloro-N-[[6-[2-(2-fluoroethylamino)ethylsulfonyl]benzothiazol-2-yl]carbamoyl]benzamide]	0.0546
O=C(NC(=O)c1cc(-n2cccc2)ccc1Cl)Nc1nc2ccc(S(=O)(=O)CCCN3CCC3)cc2s1 [Example 74, N-[[6-[3-(Azetidin-1-yl)propylsulfonyl]benzothiazol-2-yl]carbamoyl]-2-chloro-5-pyrrol-1-yl-benzamide]	0.001
CC(C)NCCCS(=O)(=O)c1ccc2nc(NC(=O)NC(=O)c3cc(-n4cccc4)ccc3Cl)sc2c1 [Example 75, 2-Chloro-N-[[6-[3-(propan-2-ylamino)propylsulfonyl]benzothiazol-2-yl]carbamoyl]-5-pyrrol-1-yl-benzamide]	0.0074
O=C(NC(=O)c1cc(-n2cccc2)ccc1Cl)Nc1nc2ccc(S(=O)(=O)CCN3CCC3)cc2s1 [Example 81, N-[[6-[2-(Azetidin-1-yl)ethylsulfonyl]benzothiazol-2-yl]carbamoyl]-2-chloro-5-pyrrol-1-yl-benzamide]	0.002
CC(C)NCCS(=O)(=O)c1ccc2nc(NC(=O)NC(=O)c3cc(-n4cccc4)ccc3Cl)sc2c1 [Example 82, 2-Chloro-N-[[6-[2-(propan-2-ylamino)ethylsulfonyl]benzothiazol-2-yl]carbamoyl]-5-pyrrol-1-yl-benzamide]	0.0016

The remaining lines, values ahead:

IC50 [µM]	SMILES
0.0609	CCN1CCN(CCS(=O)(=O)c2ccc3nc(NC(=O)NC(=O)c4ccccc4Cl)sc3c2)CC1 [Example 29, 2-Chloro-N-[[6-[2-(4-ethylpiperazin-1-yl)ethylsulfonyl]benzothiazol-2-yl]carbamoyl]benzamide]
0.179	CC1(NCCS(=O)(=O)c2ccc3nc(NC(=O)NC(=O)c4ccccc4Cl)sc3c2)CC1 [Example 39, 2-Chloro-N-[[6-[2-[(1-methylcyclopropyl)amino]ethylsulfonyl]benzothiazol-2-yl]carbamoyl]benzamide]
1.82	COCCS(=O)(=O)c1ccc2nc(NC(=O)NC(=O)c3ccccc3Cl)sc2c1 [Example 40, 2-Chloro-N-[[6-(2-methoxyethylsulfonyl)benzothiazol-2-yl]carbamoyl]benzamide]
0.177	COCCOCCS(=O)(=O)c1ccc2nc(NC(=O)NC(=O)c3ccccc3Cl)sc2c1 [Example 42, 2-Chloro-N-[[6-[2-(2-methoxyethoxy)ethylsulfonyl]benzothiazol-2-yl]carbamoyl]benzamide]
0.0114	COCCNCCCS(=O)(=O)c1ccc2nc(NC(=O)NC(=O)c3cc(-n4cccc4)ccc3Cl)sc2c1 [Example 76, 2-Chloro-N-[[6-[3-(2-methoxyethylamino)propylsulfonyl]benzothiazol-2-yl]carbamoyl]-5-pyrrol-1-yl-benzamide]
0.0071	CC(C)NCCS(=O)(=O)c1ccc2nc(NC(=O)NC(=O)c3cc(-n4cccc4)ccc3I)sc2c1 [Example 84, 2-Iodo-N-(6-(2-(isopropylamino)ethylsulfonyl)benzothiazol-2-ylcarbamoyl)-5-(1H-pyrrol-1-yl)benzamide]
0.4	O=C(NC(=O)c1ccccc1Cl)Nc1nc2ccc(S(=O)(=O)CCOCCO)cc2s1 [Example 121, 2-Chloro-N-[[6-[2-(2-hydroxyethoxy)ethylsulfonyl]benzothiazol-2-yl]carbamoyl]benzamide]
0.219	C=CS(=O)(=O)c1ccc2nc(NC(=O)NC(=O)c3ccccc3Cl)sc2c1 [Example 129, 2-Chloro-N-[(6-ethenylsulfonylbenzothiazol-2-yl)carbamoyl]benzamide]
0.484	O=C(NC(=O)c1ccccc1Cl)Nc1nc2ccc(S(=O)(=O)C3CCCN(CC4CC4)C3)cc2s1 (stereo not drawn) [Example 143, 2-Chloro-N-[[6-[[1-(cyclopropylmethyl)-3-piperidyl]sulfonyl]benzothiazol-2-yl]carbamoyl]benzamide]
0.201	O=C(NC(=O)c1ccccc1Cl)Nc1nc2ccc(S(=O)(=O)C3CCN(CC4CC4)C3)cc2s1 (stereo not drawn) [Example 144, 2-Chloro-N-[[6-[1-(cyclopropylmethyl)pyrrolidin-3-yl]sulfonylbenzothiazol-2-yl]carbamoyl]benzamide]
0.0598	CC(C)NCCCS(=O)(=O)c1ccc2nc(NC(=O)NC(=O)c3ccccc3Cl)sc2c1 [Example 145, 2-Chloro-N-[[6-[3-(propan-2-ylamino)propylsulfonyl]benzothiazol-2-yl]carbamoyl]benzamide]
